Source: ChEMBL document CHEMBL5104103 (J Med Chem, 2022)

Tests used:
[1] = target: T1, Cytoplasmic tyrosine-protein kinase BMX (Homo sapiens) (UniProt P51813); assay: Displacement of competitive tracer from BMX (unknown origin) assessed as target occupancy at […] preincubated for 15 mins measured for 1 hr relative to control; conditions: dose 1.5 µM
T1 sequence (whole entry): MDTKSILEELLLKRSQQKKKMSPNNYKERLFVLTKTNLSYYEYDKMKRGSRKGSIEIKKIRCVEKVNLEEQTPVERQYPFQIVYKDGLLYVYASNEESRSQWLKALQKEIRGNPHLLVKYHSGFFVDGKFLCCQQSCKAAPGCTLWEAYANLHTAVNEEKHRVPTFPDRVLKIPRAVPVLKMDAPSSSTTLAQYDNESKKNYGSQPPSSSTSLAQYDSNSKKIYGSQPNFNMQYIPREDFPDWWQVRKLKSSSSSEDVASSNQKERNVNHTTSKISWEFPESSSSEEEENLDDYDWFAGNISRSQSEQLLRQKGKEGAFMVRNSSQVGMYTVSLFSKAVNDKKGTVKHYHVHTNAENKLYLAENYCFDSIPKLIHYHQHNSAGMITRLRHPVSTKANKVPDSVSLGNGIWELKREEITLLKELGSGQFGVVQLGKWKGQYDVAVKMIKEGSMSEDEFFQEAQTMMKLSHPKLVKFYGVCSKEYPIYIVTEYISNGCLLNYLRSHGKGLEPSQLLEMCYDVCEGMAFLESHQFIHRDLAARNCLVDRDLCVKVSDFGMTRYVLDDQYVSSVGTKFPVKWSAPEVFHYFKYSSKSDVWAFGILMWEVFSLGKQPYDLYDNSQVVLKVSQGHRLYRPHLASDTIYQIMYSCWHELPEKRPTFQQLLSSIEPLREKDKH

[2] = target: T1, Cytoplasmic tyrosine-protein kinase BMX (Homo sapiens); assay: Displacement of competitive tracer from BMX (unknown origin) assessed as target occupancy at […] preincubated for 15 mins measured for 24 hrs relative to control; conditions: dose 1.5 µM
[3] = target: T2, Tyrosine-protein kinase ITK/TSK (Homo sapiens) (UniProt Q08881); assay: Displacement of competitive tracer from ITK (unknown origin) assessed as target occupancy at […] preincubated for 15 mins measured for 1 hr relative to control; conditions: dose 1.5 µM
T2 sequence (whole entry): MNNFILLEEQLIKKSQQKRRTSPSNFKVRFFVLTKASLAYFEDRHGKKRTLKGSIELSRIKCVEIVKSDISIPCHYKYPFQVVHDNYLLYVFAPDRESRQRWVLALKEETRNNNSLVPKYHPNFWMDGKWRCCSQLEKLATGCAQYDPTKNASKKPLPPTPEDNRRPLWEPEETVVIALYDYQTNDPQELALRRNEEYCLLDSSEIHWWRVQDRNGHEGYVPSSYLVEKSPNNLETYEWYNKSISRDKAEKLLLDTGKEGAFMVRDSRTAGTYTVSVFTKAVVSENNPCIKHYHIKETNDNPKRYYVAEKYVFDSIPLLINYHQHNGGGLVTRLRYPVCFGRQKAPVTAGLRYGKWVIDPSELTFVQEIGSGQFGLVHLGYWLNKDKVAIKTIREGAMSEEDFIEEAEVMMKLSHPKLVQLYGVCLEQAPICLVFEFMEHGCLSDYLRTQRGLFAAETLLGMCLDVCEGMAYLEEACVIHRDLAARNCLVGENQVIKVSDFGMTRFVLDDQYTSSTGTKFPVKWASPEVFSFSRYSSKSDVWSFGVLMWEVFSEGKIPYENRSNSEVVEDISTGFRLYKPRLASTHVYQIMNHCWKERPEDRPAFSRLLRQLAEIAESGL

[4] = target: T2, Tyrosine-protein kinase ITK/TSK (Homo sapiens); assay: Displacement of competitive tracer from ITK (unknown origin) assessed as target occupancy at […] preincubated for 15 mins measured for 24 hrs relative to control; conditions: dose 1.5 µM
[5] = target: T3, Tyrosine-protein kinase Tec (Homo sapiens) (UniProt P42680); assay: Displacement of competitive tracer from TEC (unknown origin) assessed as target occupancy at […] preincubated for 15 mins measured for 1 hr relative to control; conditions: dose 1.5 µM
T3 sequence (whole entry): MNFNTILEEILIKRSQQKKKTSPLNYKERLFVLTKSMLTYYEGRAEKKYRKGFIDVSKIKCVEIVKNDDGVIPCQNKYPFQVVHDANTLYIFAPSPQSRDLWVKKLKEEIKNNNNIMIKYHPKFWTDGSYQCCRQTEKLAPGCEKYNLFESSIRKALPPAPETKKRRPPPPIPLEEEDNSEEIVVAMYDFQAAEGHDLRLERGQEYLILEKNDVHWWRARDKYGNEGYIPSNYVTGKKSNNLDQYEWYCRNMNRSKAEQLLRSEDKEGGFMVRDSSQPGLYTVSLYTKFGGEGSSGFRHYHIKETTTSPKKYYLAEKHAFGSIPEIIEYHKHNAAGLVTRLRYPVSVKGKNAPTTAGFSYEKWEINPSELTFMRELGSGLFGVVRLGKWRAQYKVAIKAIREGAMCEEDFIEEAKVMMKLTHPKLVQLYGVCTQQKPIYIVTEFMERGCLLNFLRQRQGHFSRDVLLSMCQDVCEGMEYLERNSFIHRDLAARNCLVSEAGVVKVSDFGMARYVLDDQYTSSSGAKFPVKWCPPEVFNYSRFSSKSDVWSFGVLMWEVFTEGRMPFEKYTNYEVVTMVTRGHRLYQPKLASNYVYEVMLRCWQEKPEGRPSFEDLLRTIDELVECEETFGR

[6] = target: T3, Tyrosine-protein kinase Tec (Homo sapiens); assay: Displacement of competitive tracer from TEC (unknown origin) assessed as target occupancy at […] preincubated for 15 mins measured for 6 hrs relative to control; conditions: dose 1.5 µM
[7] = target: T4, Tyrosine-protein kinase TXK (Homo sapiens) (UniProt P42681); assay: Displacement of competitive tracer from RLK (unknown origin) assessed as target occupancy at […] preincubated for 15 mins measured for 1 hr relative to control; conditions: dose 1.5 µM
T4 sequence (whole entry): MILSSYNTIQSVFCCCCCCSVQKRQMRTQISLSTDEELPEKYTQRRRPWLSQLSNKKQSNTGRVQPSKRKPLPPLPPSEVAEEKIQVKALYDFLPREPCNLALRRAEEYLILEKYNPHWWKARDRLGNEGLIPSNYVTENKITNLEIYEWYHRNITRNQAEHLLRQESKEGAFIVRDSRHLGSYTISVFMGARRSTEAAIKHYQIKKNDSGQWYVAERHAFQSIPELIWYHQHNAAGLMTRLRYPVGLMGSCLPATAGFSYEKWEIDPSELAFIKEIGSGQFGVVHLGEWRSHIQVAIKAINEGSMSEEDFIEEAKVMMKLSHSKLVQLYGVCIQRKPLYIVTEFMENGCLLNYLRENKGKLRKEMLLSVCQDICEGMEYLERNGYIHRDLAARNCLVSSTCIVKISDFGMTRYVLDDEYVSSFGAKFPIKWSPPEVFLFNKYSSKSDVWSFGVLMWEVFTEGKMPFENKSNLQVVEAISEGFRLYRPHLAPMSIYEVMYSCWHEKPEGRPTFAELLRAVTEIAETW

[8] = Inhibition of NFAT activation in anti-CD3/anti-CD28-stimulated human Jurkat T cells; format: cell-based
[9] = Drug concentration in plasma of collagen-induced arthritis Lewis rat model 10 mg/kg/day, po measured after 6 hrs post-collection of plasma; format: ADME, organism-based
[10] = Drug concentration in plasma of collagen-induced arthritis Lewis rat model 3 mg/kg/day, po measured after 12 hrs post-collection of plasma; format: ADME, organism-based; conditions: in vivo, BLD = below limit of detection

Activity [1]: 90% | Activity [2]: 69% | Activity [3]: 82% | Activity [4]: -7% | Activity [5]: 87% | Activity [6]: 80% | Activity [7]: 88% | IC50 [8]: 2.1 µM | concentration at 6 h [9]: 40.2 ng/mL | Cp [10]: Bld
Compound: CC(C)(C)/C=C(\C#N)C(=O)N1CCC[C@@H](n2nc(-c3ccc(Oc4ccccc4)cc3F)c3c(N)ncnc32)C1 [ATUZABRUTINIB]
